Our source for the inhibition values is patent US20260258036A1, “INHIBITORS OF HUMAN ALDOSTERONE SYNTHASE (CYP11B2)” («TARGET MEDICALS» LIMITED LIABILITY COMPANY, priority 2022, published 2026).

The structures appear in SMILES notation.

One may read the inhibition as the share of the control response that was lost under treatment.

The target of one assay is T1, recombinant CYP11B2 (Homo sapiens, UniProt P19099).
T1 sequence (P19099 25-503): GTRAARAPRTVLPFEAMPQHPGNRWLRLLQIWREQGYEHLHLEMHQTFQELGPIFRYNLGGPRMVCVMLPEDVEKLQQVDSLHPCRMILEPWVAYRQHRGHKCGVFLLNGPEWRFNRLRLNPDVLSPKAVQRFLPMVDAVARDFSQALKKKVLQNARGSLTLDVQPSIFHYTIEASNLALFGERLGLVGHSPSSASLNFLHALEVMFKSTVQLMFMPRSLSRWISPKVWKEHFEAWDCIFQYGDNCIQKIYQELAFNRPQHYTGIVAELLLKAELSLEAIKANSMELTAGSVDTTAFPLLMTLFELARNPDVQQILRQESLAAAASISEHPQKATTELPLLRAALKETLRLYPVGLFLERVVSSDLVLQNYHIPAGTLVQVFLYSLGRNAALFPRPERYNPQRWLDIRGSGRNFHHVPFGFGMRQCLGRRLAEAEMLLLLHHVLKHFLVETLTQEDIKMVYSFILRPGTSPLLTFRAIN
Description: Inhibition of CYP11B2 activity in a reconstructed enzyme system (HPLC with UV detector). In kind it is biochemical. The settings on record: compounds 1_xx; test compound final concentration ≤2 μM; corticosterone substrate; 30 minutes at 37° C.; read-out: Level of CYP11B2 activity inhibition. How it is done:
The authors of the present invention investigated the activity of the compounds according to the invention as inhibitors of CYP11 B2 when analyzed in a reconstructed system containing 0.5 μm recombinant CYP1 1B2, 0.3 μm human adrenodoxin reductase, 2 μm human adrenodoxin, 100 μm corticosterone as a control reaction to detect the formation of a product with using an HPLC system with a UV detector. The test compound is added to the reaction mixture to a final concentration of ≤2 μM. The concentrated protein mixture was diluted with buffer to a final volume of 0.5 ml, pre-incubated for 10 min at 37° C., followed by the addition of the substrate. Reactions are initiated by adding NADPH (nicotinamide adenine dinucleotide phosphate) to a final concentration of 0.25 mM with a regenerating system (glucose-6-phosphate and glucose-6-phosphate dehydrogenase) in 25 mM potassium phosphate buffer, pH 7.4, containing 0.1 mM DTT (dithiothreitol), 0.1% Tween-20.4 mM MgCl2 and incubated at 37° C. After 30 minutes of incubation, the reaction is stopped by adding 5 ml of dichloromethane. The organic phase is isolated by centrifugation, evaporation, dissolution in ethanol and transferred to a vial for HPLC studies. A C18 Luna 100 Å 250×4, 6 mm column was used on an Agilent Technologies 1200 series instrument (USA) with ethanol as the mobile phase.
Activity (a) is calculated as the amount of product in nmol per minute per 1 nmol of CYP.
where k is the correction factor (k=1 is used as the molar extinction coefficients of steroid substrates and products similar at a detection wavelength of 254 nm), As is the peak area of the substrate, cs is the concentration of the substrate, Ap is the peak area of the product, ce is the concentration of CYP (cytochrome P450), t is the reaction time.
The level of inhibition of CYP11 B2 activity is expressed as a percentage, where 0% is defined as no inhibition in reactions without test compound and 100% is absolute inhibition by test compound.
Take `COc1c(C)cc(S(=O)(=O)n2ccc3c(-c4ccc(S(C)(=O)=O)cn4)cncc32)cc1C` [Compound 1_05, 1-(4-methoxy-3,5-dimethylphenyl)sulfonyl-4-(5-methylsulfonyl-2-pyridyl)pyrrolo[2,3-c]pyridine]: the inhibition at 2 µM was 20 to 100%.

In the case of `CN1CCN(c2c(F)cc(S(=O)(=O)n3ccc4c(-c5ccc(C#N)nc5)cncc43)cc2F)CC1` [Compound 1_28, 5-(1-((3,5-difluoro-4-(4-methylpiperazin-1-yl)phenyl)sulfonyl)-1H-pyrrolo[2,3-c]pyridin-4-yl)picolinonitrile], the inhibition at 2 µM was 50 to 100%.

Take `CN(c1c(F)cc(S(=O)(=O)n2ccc3c(-c4ccccn4)cncc32)cc1F)C1CCC1` [Compound 1_14, N-cyclobutyl-2,6-difluoro-N-methyl-4-((4-(pyridin-2-yl)-1H-pyrrolo[2,3-c]pyridin-1-yl)sulfonyl)aniline]: the inhibition at 2 µM fell in the range of 50 to 100%.

In the case of `CN1CCN(c2c(F)cc(S(=O)(=O)n3ccc4c(-c5ccc(C6CC6)cn5)cncc43)cc2F)CC1` [Compound 1_31, 4-(5-cyclopropylpyridin-2-yl)-1-((3,5-difluoro-4-(4-methylpiperazin-1-yl)phenyl)sulfonyl)-1H-pyrrolo[2,3-c]pyridine], the inhibition at 2 µM was in the range of 50 to 100%.

Turning to `CN(C)CCNc1c(F)cc(S(=O)(=O)n2ccc3c(-c4ccccn4)cncc32)cc1F` [Compound 1_22, N1-(2,6-difluoro-4-((4-(pyridin-2-yl)-1H-pyrrolo[2,3-c]pyridin-1-yl)sulfonyl)phenyl)-N2,N2-dimethylethane-1,2-diamine], the inhibition at 2 µM is 50 to 100%.

Regarding `CN1CCN(c2c(F)cc(S(=O)(=O)n3ccc4c(-c5ncc(F)cn5)cncc43)cc2F)CC1` [Compound 1_29, 1-((3,5-difluoro-4-(4-methylpiperazin-1-yl)phenyl)sulfonyl)-4-(5-fluoropyrimidin-2-yl)-1H-pyrrolo[2,3-c]pyridine], the inhibition at 2 µM was in the range of 50 to 100%.

Take `O=S(=O)(c1cc(F)c(OCC2CC2)c(F)c1)n1ccc2c(-c3ccccn3)cncc21` [Compound 1_07, 1-((4-(cyclopropylmethoxy)-3,5-difluorophenyl)sulfonyl)-4-(pyridin-2-yl)-1H-pyrrolo[2,3-c]pyridine]: the inhibition at 2 µM was 50 to 100%.

On to `CN(C)c1c(F)cc(S(=O)(=O)N2CCc3c(-c4ccccn4)cncc32)cc1F` [Compound 1_15, 2,6-difluoro-N,N-dimethyl-4-((4-(pyridin-2-yl)-2,3-dihydro-1H-pyrrolo[2,3-c]pyridin-1-yl)sulfonyl)aniline], for which the inhibition at 2 µM is 20 to 100%.

Regarding `O=S(=O)(c1cc(F)c(OCC(F)F)c(F)c1)n1ccc2c(-c3ccccn3)cncc21` [Compound 1_08, 1-((4-(2,2-difluoroethoxy)-3,5-difluorophenyl)sulfonyl)-4-(pyridin-2-yl)-1H-pyrrolo[2,3-c]pyridine], the inhibition at 2 µM fell in the range of 50 to 100%.

Take `O=S(=O)(c1cc(F)c(NC2CC2)c(F)c1)n1ccc2c(-c3ccccn3)cncc21` [Compound 1_13, N-cyclopropyl-2,6-difluoro-4-((4-(pyridin-2-yl)-1H-pyrrolo[2,3-c]pyridin-1-yl)sulfonyl)aniline]: the inhibition at 2 µM is 50 to 100%.

`CNc1cnc(-c2cncc3c2ccn3S(=O)(=O)c2cc(F)c(N3CCN(C)CC3)c(F)c2)cn1` [Compound 1_30, 5-(1-((3,5-difluoro-4-(4-methylpiperazin-1-yl)phenyl)sulfonyl)-1H-pyrrolo[2,3-c]pyridin-4-yl)-N-methylpyrazin-2-amine]: the inhibition at 2 µM fell in the range of 1 to 100%.

The same assay, now with this note: compounds 2_xx, 3_xx, 4_01; test compound final concentration ≤2 μM; corticosterone substrate; 30 minutes at 37° C.; read-out: Level of CYP11B2 activity inhibition.
Consider `CNc1cnc(-c2cncc3c2ccn3S(=O)(=O)c2cc(F)c(N3CC4CN(C)CC4C3)c(F)c2)cn1` (stereo not drawn) [Compound 3_22, 5-(1-((3,5-difluoro-4-(5-methylhexahydropyrrolo[3,4-c]pyrrol-2(1H)-yl)phenyl)sulfonyl)-1H-pyrrolo[2,3-c]pyridin-4-yl)-N-methylpyrazin-2-amine], for which the inhibition at 2 µM lay in the range of 35 to 100%.

With `O=S(=O)(c1cc(F)c(N2CCN(C3CC3)CC2)c(F)c1)n1ccc2c(-c3ccccn3)cncc21` [Compound 3_12, 1-((4-(4-cyclopropylpiperazin-1-yl)-3,5-difluorophenyl)sulfonyl)-4-(pyridin-2-yl)-1H-pyrrolo[2,3-c]pyridine], the inhibition at 2 µM was in the range of 20 to 100%.

On to `CN1CCCN(c2c(F)cc(S(=O)(=O)n3ccc4c(-c5ccccn5)cncc43)cc2F)CC1` [Compound 3_13, 1-((3,5-difluoro-4-(4-methyl-1,4-diazepan-1-yl)phenyl)sulfonyl)-4-(pyridin-2-yl)-1H-pyrrolo[2,3-c]pyridine], for which the inhibition at 2 µM lay in the range of 35 to 100%.

As to `O=S(=O)(c1cc(F)c(N2CC3(CNC3)C2)c(F)c1)n1ccc2c(-c3ccccn3)cncc21` [Compound 3_21, 1-((3,5-difluoro-4-(2,6-diazaspiro[3.3]heptan-2-yl)phenyl)sulfonyl)-4-(pyridin-2-yl)-1H-pyrrolo[2,3-c]pyridine], the inhibition at 2 µM is 20 to 100%.

`CNc1ccc(-c2cncc3c2ccn3S(=O)(=O)c2cc(F)c(N3CCN(C)CC3)c(F)c2)cn1` [Compound 3_03, 5-(1-((3,5-difluoro-4-(4-methylpiperazin-1-yl)phenyl)sulfonyl)-1H-pyrrolo[2,3-c]pyridin-4-yl)-N-methylpyridin-2-amine]: the inhibition at 2 µM lay in the range of 20 to 100%.

On to `O=S(=O)(c1cc(F)c(N2CCNCC2)c(F)c1)n1ccc2c(-c3ccccn3)cncc21` [Compound 3_01, 1-((3,5-difluoro-4-(piperazin-1-yl)phenyl)sulfonyl)-4-(pyridin-2-yl)-1H-pyrrolo[2,3-c]pyridine], for which the inhibition at 2 µM lay within 20 to 100%.

On to `CN1CCN(c2c(F)cc(S(=O)(=O)n3ccc4c(-c5ccccn5)cncc43)cc2F)CC1` [Compound 4_01, 1-((3,5-difluoro-4-(4-methylpiperazin-1-yl)phenyl)sulfonyl)-4-(pyridin-2-yl)-1H-pyrrolo[2,3-c]pyridine], for which the inhibition at 2 µM was 35 to 100%.

On to `CN1CCN(c2c(F)cc(S(=O)(=O)n3ccc4c(-c5cnc(C#N)cn5)cncc43)cc2F)CC1` [Compound 3_05, 5-(1-((3,5-difluoro-4-(4-methylpiperazin-1-yl)phenyl)sulfonyl)-1H-pyrrolo[2,3-c]pyridin-4-yl)pyrazine-2-carbonitrile], for which the inhibition at 2 µM lay in the range of 35 to 100%.

For the molecule `CN1CCN(c2c(F)cc(S(=O)(=O)n3ccc4c(-c5cnc(C#N)nc5)cncc43)cc2F)CC1` [Compound 3_09, 5-(1-((3,5-difluoro-4-(4-methylpiperazin-1-yl)phenyl)sulfonyl)-1H-pyrrolo[2,3-c]pyridin-4-yl)pyrimidine-2-carbonitrile], the inhibition at 2 µM fell in the range of 35 to 100%.

In the case of `CN1CC2CCC(C1)N2c1c(F)cc(S(=O)(=O)n2ccc3c(-c4ccccn4)cncc32)cc1F` [Compound 3_19, 1-((3,5-difluoro-4-(3-methyl-3,8-diazabicyclo[3.2.1]octan-8-yl)phenyl)sulfonyl)-4-(pyridin-2-yl)-1H-pyrrolo[2,3-c]pyridine], the inhibition at 2 µM is 35 to 100%.

`O=S(=O)(c1cc(F)c(N2CCN3CCC2C3)c(F)c1)n1ccc2c(-c3ccccn3)cncc21` (stereo not drawn) [Compound 3_20, 1-((4-(1,4-diazabicyclo[3.2.1]octan-4-yl)-3,5-difluorophenyl)sulfonyl)-4-(pyridin-2-yl)-1H-pyrrolo[2,3-c]pyridine]: the inhibition at 2 µM is 35 to 100%.

For `CN1CC2CC1CN2c1c(F)cc(S(=O)(=O)n2ccc3c(-c4ccccn4)cncc32)cc1F` (stereo not drawn) [Compound 3_17, 1-((3,5-difluoro-4-(5-methyl-2,5-diazabicyclo[2.2.1]heptan-2-yl)phenyl)sulfonyl)-4-(pyridin-2-yl)-1H-pyrrolo[2,3-c]pyridine], the inhibition at 2 µM lay in the range of 35 to 100%.

Regarding `O=S(=O)(c1cc(F)c(N2CC3CC2CN3)c(F)c1)n1ccc2c(-c3ccccn3)cncc21` (stereo not drawn) [Compound 3_25, 1-((4-(2,5-diazabicyclo[2.2.1]heptan-2-yl)-3,5-difluorophenyl)sulfonyl)-4-(pyridin-2-yl)-1H-pyrrolo[2,3-c]pyridine], the inhibition at 2 µM was 35 to 100%.
